Source: patent publication US9951049B2, “Pyrazole linked benzimidazole conjugates and a process for preparation thereof” (Council of Scientific & Industrial Reseach, priority 2014, dated 2018)
“Also recorded” adds a separate entry of the source. Read-outs that look alike come from different tables or passages of the source.

Assays:
OVCAR-3 = assay: NCI SRB screen, OVCAR-3; details: Homo sapiens, OVCAR-3, 48 h, read-out: GI50 values
NCI-H460 = assay: NCI SRB screen, NCI-H460; details: Homo sapiens, NCI-H460, 48 h, read-out: GI50 values
SF-539 = assay: NCI SRB screen, SF-539; details: Homo sapiens, 48 h, read-out: GI50 values
KM12 = assay: NCI SRB screen, KM12; details: Homo sapiens, KM12, 48 h, read-out: GI50 values
SR = assay: NCI SRB screen, SR; details: Homo sapiens, 48 h, read-out: GI50 values
SK-OV-3 = assay: NCI SRB screen, SK-OV-3; details: Homo sapiens, SK-OV-3, 48 h, read-out: GI50 values
MOLT-4 = assay: NCI SRB screen, MOLT-4; details: Homo sapiens, MOLT-4, 48 h, read-out: GI50 values
[1] = tested on: fifty six human tumor cell lines; assay: NCI human tumor cell line screen (48 h, SRB), all cell lines; details: for GI50: Homo sapiens; for anticancer activity (in words): human cancer cell lines of the NCI panel; for Log10 TGI mean graph midpoint (MG_MID): human tumor cell lines, mean over the panel, total growth inhibition
SNB-19 = assay: NCI SRB screen, SNB-19; details: Homo sapiens, SNB-19, 48 h, read-out: GI50 values
BT-549 = assay: NCI SRB screen, BT-549; details: Homo sapiens, BT-549, 48 h, read-out: GI50 values
Renal cancer cell lines = assay: NCI SRB screen, Renal panel average; details: Homo sapiens, 48 h, read-out: Log10 GI50 (converted)
CCRF-CEM = assay: NCI SRB screen, CCRF-CEM; details: Homo sapiens, 48 h, read-out: GI50 values
ACHN = assay: NCI SRB screen, ACHN; details: Homo sapiens, 48 h, read-out: GI50 values
MALME-3M = assay: NCI SRB screen, MALME-3M; details: Homo sapiens, 48 h, read-out: GI50 values
NCI-H226 = assay: NCI SRB screen, NCI-H226; details: Homo sapiens, NCI-H226, 48 h, read-out: GI50 values
UACC-62 = assay: NCI SRB screen, UACC-62; details: Homo sapiens, UACC-62, 48 h, read-out: GI50 values
IGROV1 = assay: NCI SRB screen, IGROV1; details: Homo sapiens, IGROV-1, 48 h, read-out: GI50 values
OVCAR-5 = assay: NCI SRB screen, OVCAR-5; details: Homo sapiens, OVCAR-5, 48 h, read-out: GI50 values
SF-268 = assay: NCI SRB screen, SF-268; details: Homo sapiens, SF-268, 48 h, read-out: GI50 values
NCI-H522 = assay: NCI SRB screen, NCI-H522; details: Homo sapiens, NCI-H522, 48 h, read-out: GI50 values, Non-small cell lung, NCI-H522
M14 = assay: NCI SRB screen, M14; details: Homo sapiens, M14, 48 h, read-out: GI50 values
MDA-MB-435 = assay: NCI SRB screen, MDA-MB-435 (Melanoma panel); details: Homo sapiens, MDA-MB-435, 48 h, read-out: GI50 values
T-47D = assay: NCI SRB screen, T-47D; details: Homo sapiens, T47D, 48 h, read-out: GI50 values
RXF 393 = assay: NCI SRB screen, RXF 393; details: Homo sapiens, RXF 393, 48 h, read-out: GI50 values
CNS cancer cell lines = assay: NCI SRB screen, CNS panel average; details: Homo sapiens, 48 h, read-out: Log10 GI50 (converted)
SNB-75 = assay: NCI SRB screen, SNB-75; details: Homo sapiens, SNB-75, 48 h, read-out: GI50 values
[2] = tested on: Prostate cancer cell lines; assay: NCI SRB screen, Prostate panel average; details: Homo sapiens, 48 h, read-out: Log10 GI50 (converted)
HOP-62 = assay: NCI SRB screen, HOP-62; details: Homo sapiens, HOP-62, 48 h, read-out: GI50 values
HS 578T = assay: NCI SRB screen, HS 578T; details: Homo sapiens, 48 h, read-out: GI50 values
SF-295 = assay: NCI SRB screen, SF-295; details: Homo sapiens, SF-295, 48 h, read-out: GI50 values
RPMI-8226 = assay: NCI SRB screen, RPMI-8226; details: Homo sapiens, RPMI-8226, 48 h, read-out: GI50 values
HL-60(TB) = assay: NCI SRB screen, HL-60(TB); assay type: cell-based; details: Homo sapiens, Leukemia, 48 h
Leukemia cell lines = assay: NCI SRB screen, Leukemia panel average; details: Homo sapiens, 48 h, read-out: Log10 GI50 (converted)
[3] = tested on: Ovarian cancer cell lines; assay: NCI SRB screen, Ovarian panel average; details: Homo sapiens, 48 h, read-out: Log10 GI50 (converted)
[4] = read-out: Log10 GI50 mean graph midpoint (MG_MID) (converted)

Row | Compound | GI50 (OVCAR-3) [µM] | GI50 (NCI-H460) [µM] | GI50 (SF-539) [µM] | GI50 (KM12) [µM] | GI50 (SR) [µM] | GI50 (SK-OV-3) [µM] | GI50 (MOLT-4) [µM] | GI50 ([1]; read-out: GI50 value range) [µM] | GI50 [1, 4] [µM] | anticancer activity (in words) [1] | Log10 TGI mean graph midpoint (MG_MID) [1] | GI50 (SNB-19) [µM] | GI50 (BT-549) [µM] | GI50 (Renal cancer cell lines) [µM] | GI50 (CCRF-CEM) [µM] | GI50 (ACHN) [µM] | GI50 (MALME-3M) [µM] | GI50 (NCI-H226) [µM] | GI50 (UACC-62) [µM] | GI50 (IGROV1) [µM] | further results
1 | Fc1ccc2[nH]c(-c3cc(-c4ccc5c(c4)OCO5)n[nH]3)nc2c1 [7g, 2-(3-(benzo[d][1,3]dioxol-5-yl)-1H-pyrazol-5-yl)-5-fluoro-1H-benzo[d]imidazole] | 5.32 | 6.06 | 2.9 | 2.96 | 4.95 | 1.24 | 3.14 | 0.34 to 10 | 4.79 | significant anticancer activity; also recorded: pronounced activities | −4.19 | 10 | 2.16 | 4.57 | 2.65 | 3.64 | 2.75 | 4.21 | 4.77 | 3.67 | GI50 (OVCAR-5): 6.44 µM; GI50 (SF-268): 6.05 µM; GI50 (NCI-H522): 2.56 µM; GI50 (M14): 4.17 µM; GI50 (MDA-MB-435): 5.43 µM; GI50 (T-47D): 3.21 µM; GI50 (RXF 393): 3.02 µM; GI50 (CNS cancer cell lines): 6.31 µM; GI50 (SNB-75): 2.8 µM; GI50 [2]: 5.62 µM; GI50 (HOP-62): 8.54 µM; GI50 (HS 578T): 9.53 µM; GI50 (SF-295): 4.2 µM; GI50 (RPMI-8226): 1.09 µM; GI50 (HL-60(TB)): 2.74 µM; GI50 (Leukemia cell lines): 2.95 µM; GI50 [3]: 6.17 µM
2 | COc1cc(-c2cc(-c3nc4cc(Cl)ccc4[nH]3)[nH]n2)cc(OC)c1OC [8f, 5-chloro-2-(3-(3,4,5-trimethoxyphenyl)-1H-pyrazol-5-yl)-1H-benzo[d]imidazole] | 3.5 | 3.65 | 4.66 | 3.45 | 3.32 | 4.47 | 2.02 | 0.34 to 10 | 3.02 | significant anticancer activity; also recorded: pronounced activities | −4.93 | 7.25 | 2.54 | 3.16 | 2.48 | 2.96 | 2.58 | 1.88 | 1.97 | 3.42 | potency compared with compounds 6f, 6g, 7g and 10f ([1]; against all the cell lines tested): more potent; mean graph pattern: profile of activity and selectivity ([1]; various cell lines): an interesting profile of activity and selectivity; GI50 (OVCAR-5): 1.21 µM; GI50 (SF-268): 3.6 µM; GI50 (NCI-H522): 1.9 µM; GI50 (M14): 2.92 µM; GI50 (MDA-MB-435): 3.3 µM; GI50 (T-47D): 1.58 µM; GI50 (RXF 393): 3.26 µM; GI50 (CNS cancer cell lines): 3.72 µM; GI50 (SNB-75): 2.71 µM; GI50 [2]: 2.88 µM; GI50 (HOP-62): 3.11 µM; GI50 (HS 578T): 3.58 µM; GI50 (SF-295): 2.35 µM; GI50 (RPMI-8226): 1.65 µM; GI50 (HL-60(TB)): 2.49 µM; GI50 (Leukemia cell lines): 2.45 µM; GI50 [3]: 3.55 µM
